Measured values taken from patent publication US10457663B2, “Pyrazol-pyridine derivatives” (Hoffmann-La Roche Inc., priority 2016, dated 2019).

Experiments:
human EAAT3 = target: T1, human EAAT3 (Homo sapiens, UniProt P43005); assay: FLIPR Membrane Potential (FMP) assay; type: cell-based; conditions: HEK-293 cells stably expressing human EAAT3; L-glutamate as agonist at EC80; antagonist applied 15 min before; Kb by Cheng-Prusoff from IC50
T1 construct: expressed in transfected cells; host or cells: HEK-293
T1 sequence (P43005 1-524): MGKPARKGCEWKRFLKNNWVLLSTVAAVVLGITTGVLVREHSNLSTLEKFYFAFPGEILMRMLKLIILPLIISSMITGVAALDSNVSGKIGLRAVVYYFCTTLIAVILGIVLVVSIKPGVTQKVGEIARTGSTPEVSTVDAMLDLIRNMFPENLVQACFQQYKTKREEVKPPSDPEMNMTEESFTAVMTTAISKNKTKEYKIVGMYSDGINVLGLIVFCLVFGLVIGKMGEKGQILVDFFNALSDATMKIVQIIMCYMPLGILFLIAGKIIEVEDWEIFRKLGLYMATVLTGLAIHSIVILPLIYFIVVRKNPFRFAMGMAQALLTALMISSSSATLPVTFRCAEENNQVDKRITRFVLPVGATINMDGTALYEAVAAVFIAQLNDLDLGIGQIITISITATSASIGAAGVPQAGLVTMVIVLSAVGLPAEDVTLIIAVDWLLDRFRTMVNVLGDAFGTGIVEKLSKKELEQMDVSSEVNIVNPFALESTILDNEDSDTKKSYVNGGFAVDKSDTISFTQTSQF
Protocol: The FLIPR Membrane Potential (FMP) assay
HEK-293 cells stably expressing human EAAT3 were seeded at 55 000 cells/well in growth medium (DMEM glutamate free (Invitrogen 11960-044), 1% Pen Strep (10 ml/l GIBCO BRL N^o 15140-023), 10% FCS non dialysed heat inactivated, 5 mg/l puromycin) in poly-D-lysine treated 96-well black microtiter plates with clear-bottom. After 24 h, the growth medium was removed and 100 μl/well of Krebs buffer (140 mM NaCl, 4.7 mM KCl, 2.5 mM CaCl2), 1.2 mM MgCl2, 11 mM HEPES, 10 mM D-glucose, pH=7.4) added. The cells were then loaded by adding 100 μl/well FMP assay dye (FLIPR Membrane Potential assay reagent, Molecular Devices). The 96-well plates were then incubated at 37° C. for 1 h. The depolarization of the cells will cause more dye to enter in the cells, where it will bind to intracellular proteins and lipids and cause an increase in the fluorescence signal. Antagonist potency at human EAAT3 was determined by using L-glutamate as agonist at a concentration which gives 80% of the maximum response. The antagonists were applied 15 min before the application of the agonist L-glutamate. The assays were performed at room temperature and measurements done by using a Fluorometric Imaging Plate Reader (FLIPR, Molecular Devices) and filter #2. Responses were measured as peak increase in fluorescence minus basal (i.e. fluorescence without addition of L-glutamate). Kb was determined using the Cheng-Prusoff equation Kb=IC50/[1+(A/EC50)], where IC50 is the concentration of the antagonist producing 50% inhibition, A is the concentration of the agonist against which the IC50 is being determined (at EC80) and EC50 is the concentration of the agonist producing 50% […].

Row | Compound | Kb (human EAAT3) | melting point
1 | CC1(NC(=O)c2cc(-c3ccc(F)cc3)nc(-c3ccnn3C(C)(C)C)c2)CCS(=O)(=O)C1 (racemic) [Example 9, (RS)-2-(2-tert-Butylpyrazol-3-yl)-6-(4-fluorophenyl)-N-(3-methyl-1,1-dioxothiolan-3-yl)-pyridine-4-carboxamide] | 190 nM | 192 °C
2 | CC(C)n1nccc1-c1cc(C(=O)NC2(C)CCS(=O)(=O)C2)cc(-c2ccc(F)cc2)n1 (racemic) [Example 43, (RS)-2-(4-Fluorophenyl)-N-(3-methyl-1,1-dioxothiolan-3-yl)-6-(2-propan-2-yl-pyrazol-3-yl)-pyridine-4-carboxamide] | 530 nM | 
3 | Cn1nccc1-c1cc(C(=O)NC(C)(C)C)cc(-c2ccc(Cl)cc2)n1 [Example 1, N-tert-Butyl-2-(4-chlorophenyl)-6-(2-methyl-pyrazol-3-yl)-pyridine-4-carboxamide] | 370 nM | 184 °C
4 | CC(C)(C)NC(=O)c1cc(-c2ccc(F)cc2)nc(-c2ccnn2C(C)(C)C)c1 [Example 3, N-tert-Butyl-2-(2-tert-butyl-pyrazol-3-yl)-6-(4-fluorophenyl)-pyridine-4-carboxamide] | 65 nM | 226 °C
5 | CC(C)(C)NC(=O)c1cc(-c2ccc(Cl)cc2)nc(-c2ccnn2C(C)(C)C)c1 [Example 4, N-tert-Butyl-2-(2-tert-butyl-pyrazol-3-yl)-6-(4-chlorophenyl)-pyridine-4-carboxamide] | 160 nM | 204 °C
6 | CC(C)(C)NC(=O)c1cc(-c2ccc(C(F)(F)F)cc2)nc(-c2ccnn2C(C)(C)C)c1 [Example 5, N-tert-Butyl-2-(2-tert-butyl-pyrazol-3-yl)-6-[4-(trifluoromethyl)-phenyl]-pyridine-4-carboxamide] | 290 nM | 222 °C
7 | CCC(C)(C)NC(=O)c1cc(-c2ccc(F)cc2)nc(-c2ccnn2C(C)(C)C)c1 [Example 10, 2-(2-tert-Butylpyrazol-3-yl)-6-(4-fluorophenyl)-N-(2-methylbutan-2-yl)-pyridine-4-carboxamide] | 140 nM | 154 °C
8 | CC(C)(C)NC(=O)c1cc(-c2ccc(C3CC3)cc2)nc(-c2ccnn2C(C)(C)C)c1 [Example 17, N-tert-Butyl-2-(2-tert-butyl-pyrazol-3-yl)-6-(4-cyclopropyl-phenyl)-pyridine-4-carboxamide] | 110 nM | 
9 | CC(C)(C)NC(=O)c1cc(-c2ccc(C#N)cc2)nc(-c2ccnn2C(C)(C)C)c1 [Example 18, N-tert-Butyl-2-(2-tert-butyl-pyrazol-3-yl)-6-(4-cyano-phenyl)-pyridine-4-carboxamide] | 89 nM | 
10 | CC(C)(C)NC(=O)c1cc(-c2ccc(F)c(Cl)c2)nc(-c2ccnn2C(C)(C)C)c1 [Example 21, N-tert-Butyl-2-(2-tert-butyl-pyrazol-3-yl)-6-(3-chloro-4-fluoro-phenyl)-pyridine-4-carboxamide] | 110 nM | 
11 | COc1ccc(-c2cc(C(=O)NC(C)(C)C)cc(-c3ccnn3C(C)(C)C)n2)cc1 [Example 23, N-tert-Butyl-2-(2-tert-butyl-pyrazol-3-yl)-6-(4-methoxy-phenyl)-pyridine-4-carboxamide] | 85 nM | 
12 | Cc1cc(-c2cc(C(=O)NC(C)(C)C)cc(-c3ccnn3C(C)(C)C)n2)ccc1F [Example 25, N-tert-Butyl-2-(2-tert-butyl-pyrazol-3-yl)-6-(4-fluoro-3-methyl-phenyl)-pyridine-4-carboxamide] | 74 nM | 
13 | CC(C)n1nccc1-c1cc(C(=O)NC(C)(C)C)cc(-c2ccc(F)c(F)c2)n1 [Example 31, N-tert-Butyl-2-(3,4-difluoro-phenyl)-6-(2-propan-2-yl-pyrazol-3-yl)-pyridine-4-carboxamide] | 240 nM | 
14 | CC(C)n1nccc1-c1cc(C(=O)NC(C)(C)C)cc(-c2ccc(F)c(Cl)c2)n1 [Example 33, N-tert-Butyl-2-(3-chloro-4-fluorophenyl)-6-(2-propan-2-yl-pyrazol-3-yl)-pyridine-4-carboxamide] | 530 nM | 
15 | CC(C)n1nccc1-c1cc(C(=O)NC(C)(C)C)cc(-c2ccc(Cl)c(F)c2)n1 [Example 36, N-tert-Butyl-2-(4-chloro-3-fluorophenyl)-6-(2-propan-2-yl-pyrazol-3-yl)-pyridine-4-carboxamide] | 230 nM | 
16 | Cc1ccc(-c2cc(C(=O)NC(C)(C)C)cc(-c3ccnn3C(C)C)n2)cc1F [Example 38, N-tert-Butyl-2-(3-fluoro-4-methyl-phenyl)-6-(2-propan-2-yl-pyrazol-3-yl)-pyridine-4-carboxamide] | 400 nM | 

Further lines, results first:

Row | Kb (human EAAT3) | melting point | Compound
17 | 560 nM | 161 °C | Cn1nccc1-c1cc(C(=O)NC(C)(C)C)cc(-c2ccc(F)cc2)n1 [Example 2, N-tert-Butyl-2-(4-fluorophenyl)-6-(2-methyl-pyrazol-3-yl)-pyridine-4-carboxamide]
18 | 450 nM | 173 °C | CC(C)n1nccc1-c1cc(C(=O)NC(C)(C)C)cc(-c2ccc(C(F)(F)F)cc2)n1 [Example 6, N-tert-Butyl-2-(2-propan-2-yl-pyrazol-3-yl)-6-[4-(trifluoromethyl)-phenyl]-pyridine-4-carboxamide]
19 | 370 nM | 207 °C | CC(C)n1nccc1-c1cc(C(=O)NC(C)(C)C)cc(-c2ccc(Cl)cc2)n1 [Example 7, N-tert-Butyl-2-(4-chlorophenyl)-6-(2-propan-2-yl-pyrazol-3-yl)-pyridine-4-carboxamide]
20 | 260 nM | 200 °C | CC(C)n1nccc1-c1cc(C(=O)NC(C)(C)C)cc(-c2ccc(F)cc2)n1 [Example 8, N-tert-Butyl-2-(4-fluorophenyl)-6-(2-propan-2-yl-pyrazol-3-yl)-pyridine-4-carboxamide]
21 | 560 nM |  | CC(C)n1nccc1-c1cc(C(=O)NC(C)(C)C)cc(-c2ccc(C3CC3)cc2)n1 [Example 29, N-tert-Butyl-2-(4-cyclopropyl-phenyl)-6-(2-propan-2-yl-pyrazol-3-yl)-pyridine-4-carboxamide]
22 | 1870 nM |  | CC(C)n1nccc1-c1cc(C(=O)NC(C)(C)C)cc(-c2ccc(C#N)cc2)n1 [Example 30, N-tert-Butyl-2-(4-cyano-phenyl)-6-(2-propan-2-yl-pyrazol-3-yl)-pyridine-4-carboxamide]
23 | 1180 nM |  | CC(C)c1ccc(-c2cc(C(=O)NC(C)(C)C)cc(-c3ccnn3C(C)C)n2)cc1 [Example 32, N-tert-Butyl-2-(4-propan-2-yl-phenyl)-6-(2-propan-2-yl-pyrazol-3-yl)-pyridine-4-carboxamide]
24 | 260 nM |  | Cc1ccc(-c2cc(C(=O)NC(C)(C)C)cc(-c3ccnn3C(C)C)n2)cc1 [Example 34, N-tert-Butyl-2-(4-methyl-phenyl)-6-(2-propan-2-yl-pyrazol-3-yl)-pyridine-4-carboxamide]
25 | 360 nM |  | COc1ccc(-c2cc(C(=O)NC(C)(C)C)cc(-c3ccnn3C(C)C)n2)cc1 [Example 35, N-tert-Butyl-2-(4-methoxy-phenyl)-6-(2-propan-2-yl-pyrazol-3-yl)-pyridine-4-carboxamide]
26 | 450 nM |  | CC(C)n1nccc1-c1cc(C(=O)NC(C)(C)C#N)cc(-c2ccc(F)cc2)n1 [Example 45, N-(2-Cyanopropan-2-yl)-2-(4-fluorophenyl)-6-(2-propan-2-yl-pyrazol-3-yl)-pyridine-4-carboxamide]
